Source: publication PMC5218480 (PLoS ONE, 2017)

Test system: MV-4-11 cells
Assay: Gene expression microarray analysis (Affymetrix PrimeView) and GSEA
Assay type: cell-based, human
Design: RFU PODN (11730768_x_at) / Fold change /veh PODN (11730768_x_at) / RFU LINC00158 (11744669_a_at) / Fold change /veh LINC00158 (11744669_a_at) / RFU DUSP10 (11751237_a_at) / Fold change /veh DUSP10 (11751237_a_at) / RFU ID3 (11757404_x_at) / Fold change /veh ID3 (11757404_x_at) / RFU PLEKHG5 (11737974_s_at) / Fold change /veh PLEKHG5 (11737974_s_at) / RFU LRRC4B (11730491_at) / Fold change /veh LRRC4B (11730491_at) / RFU GIMAP4 (11747438_a_at) / Fold change /veh GIMAP4 (11747438_a_at) / RFU KRT8 (11758183_x_at) / Fold change /veh KRT8 (11758183_x_at) / RFU CNN1 (11734310_a_at) / Fold change /veh CNN1 (11734310_a_at) / RFU VPS37D (11726825_at) / Fold change /veh VPS37D (11726825_at) / RFU C10orf10 (11716522_x_at) / Fold change /veh C10orf10 (11716522_x_at) / RFU KIR2DL2 /// KIR2DL4 /// KIR2DL5A /// KIR2DL5B /// KIR2DS1 /// KIR2DS2 /// KIR2DS3 /// KIR2DS4 /// KIR3DL3 /// KIR3DL3 /// KIR3DS1 (11738374_at) / Fold change /veh KIR2DL2 /// KIR2DL4 /// KIR2DL5A /// KIR2DL5B /// KIR2DS1 /// KIR2DS2 /// KIR2DS3 /// KIR2DS4 /// KIR3DL3 /// KIR3DL3 /// KIR3DS1 (11738374_at) / RFU C1QL1 (11718748_at) / Fold change /veh C1QL1 (11718748_at) / RFU TMPRSS4 (11747572_a_at) / Fold change /veh TMPRSS4 (11747572_a_at) / RFU HAMP (11756126_x_at) / Fold change /veh HAMP (11756126_x_at) / RFU RNFT2 (11725882_a_at) / Fold change /veh RNFT2 (11725882_a_at) / RFU NR4A2 (11747474_a_at) / Fold change /veh NR4A2 (11747474_a_at) / RFU ABCC12 (11746883_a_at) / Fold change /veh ABCC12 (11746883_a_at) / RFU TMEM136 (11760407_x_at) / Fold change /veh TMEM136 (11760407_x_at) / RFU CLDN22 /// WWC2 (11732394_at) / Fold change /veh CLDN22 /// WWC2 (11732394_at) / RFU HLA-DPB1 (11760878_x_at) / Fold change /veh HLA-DPB1 (11760878_x_at) / RFU SPINT1 (11716480_a_at) / Fold change /veh SPINT1 (11716480_a_at) / RFU GAP43 (11754022_s_at) / Fold change /veh GAP43 (11754022_s_at) / RFU A4GNT (11735810_at) / Fold change /veh A4GNT (11735810_at) / RFU PRB3 (11715151_x_at) / Fold change /veh PRB3 (11715151_x_at) / RFU TUBB4B (11761932_at) / Fold change /veh TUBB4B (11761932_at) / RFU CAPN14 (11732068_a_at) / Fold change /veh CAPN14 (11732068_a_at) / RFU TMCC2 (11721928_a_at) / Fold change /veh TMCC2 (11721928_a_at) / RFU IRGQ (11745062_a_at) / Fold change /veh IRGQ (11745062_a_at) / RFU FAM174B (11720279_a_at) / Fold change /veh FAM174B (11720279_a_at) / RFU TMPRSS4 (11748680_a_at) / Fold change /veh TMPRSS4 (11748680_a_at) / RFU FAM212B (11763350_a_at) / Fold change /veh FAM212B (11763350_a_at) / RFU PLEKHG5 (11743358_a_at) / Fold change /veh PLEKHG5 (11743358_a_at) / RFU ZSCAN30 (11745921_a_at) / Fold change /veh ZSCAN30 (11745921_a_at) / RFU CMKLR1 (11741424_a_at) / Fold change /veh CMKLR1 (11741424_a_at) / RFU LOC101060620 /// MAPK8IP1 (11723275_at) / Fold change /veh LOC101060620 /// MAPK8IP1 (11723275_at) / RFU SPTSSB (11747773_x_at) / Fold change /veh SPTSSB (11747773_x_at) / RFU PRSS12 (11739890_at) / Fold change /veh PRSS12 (11739890_at) / RFU BIN1 (11741810_x_at) / Fold change /veh BIN1 (11741810_x_at) / RFU WNT11 (11732464_a_at) / Fold change /veh WNT11 (11732464_a_at) / RFU C10orf10 (11716521_a_at) / Fold change /veh C10orf10 (11716521_a_at) / RFU C5orf56 (11738089_at) / Fold change /veh C5orf56 (11738089_at) / RFU CYB561 (11721691_x_at) / Fold change /veh CYB561 (11721691_x_at) / RFU ANKRD19P (11752326_a_at) / Fold change /veh ANKRD19P (11752326_a_at) / RFU OR2T12 /// OR2T33 /// OR2T8 (11738714_s_at) / Fold change /veh OR2T12 /// OR2T33 /// OR2T8 (11738714_s_at) / RFU VCAN (11748164_a_at) / Fold change /veh VCAN (11748164_a_at) / RFU JSRP1 (11732532_at) / Fold change /veh JSRP1 (11732532_at) / RFU KRTAP10-11 (11738290_x_at) / Fold change /veh KRTAP10-11 (11738290_x_at) / RFU MYO3A (11730013_a_at) / Fold change /veh MYO3A (11730013_a_at) / RFU EBF3 (11725865_a_at) / Fold change /veh EBF3 (11725865_a_at) / RFU CAMK2N1 (11719241_x_at) / Fold change /veh CAMK2N1 (11719241_x_at) / RFU C5orf56 (11738088_a_at) / Fold change /veh C5orf56 (11738088_a_at) / RFU OLFML3 (11715873_a_at) / Fold change /veh OLFML3 (11715873_a_at) / RFU LOC100653217 /// NTM (11731650_a_at) / Fold change /veh LOC100653217 /// NTM (11731650_a_at) / RFU MAPK11 (11762145_a_at) / Fold change /veh MAPK11 (11762145_a_at) / RFU FIZ1 (11724087_x_at) / Fold change /veh FIZ1 (11724087_x_at) / RFU OASL (11726364_x_at) / Fold change /veh OASL (11726364_x_at) / RFU SOX15 (11748057_x_at) / Fold change /veh SOX15 (11748057_x_at) / RFU CD79A (11719716_a_at) / Fold change /veh CD79A (11719716_a_at) / RFU HIST1H1D (11736915_at) / Fold change /veh HIST1H1D (11736915_at) / RFU CASKIN2 (11723855_a_at) / Fold change /veh CASKIN2 (11723855_a_at) / RFU LOC730098 (11760151_x_at) / Fold change /veh LOC730098 (11760151_x_at) / RFU OR4N2 (11742367_at) / Fold change /veh OR4N2 (11742367_at) / RFU PRRT2 (11749266_a_at) / Fold change /veh PRRT2 (11749266_a_at) / RFU SNX32 (11753110_a_at) / Fold change /veh SNX32 (11753110_a_at) / RFU CDHR5 (11726645_a_at) / Fold change /veh CDHR5 (11726645_a_at) / RFU RCAN1 (11760418_a_at) / Fold change /veh RCAN1 (11760418_a_at) / RFU FAM167A (11723789_a_at) / Fold change /veh FAM167A (11723789_a_at) / RFU FAM26E (11764081_at) / Fold change /veh FAM26E (11764081_at) / RFU ISYNA1 (11749810_s_at) / Fold change /veh ISYNA1 (11749810_s_at) / RFU ACY1 (11761880_at) / Fold change /veh ACY1 (11761880_at) / RFU 11764098_at / Fold change /veh 11764098_at / RFU SAMD14 (11745864_x_at) / Fold change /veh SAMD14 (11745864_x_at) / RFU NPB (11741838_a_at) / Fold change /veh NPB (11741838_a_at) / RFU TMPRSS6 (11731388_a_at) / Fold change /veh TMPRSS6 (11731388_a_at) / RFU KRTAP10-2 (11738614_at) / Fold change /veh KRTAP10-2 (11738614_at) / RFU ARHGAP8 /// PRR5-ARHGAP8 (11727945_x_at) / Fold change /veh ARHGAP8 /// PRR5-ARHGAP8 (11727945_x_at) / RFU KRTAP5-7 /// NADSYN1 (11734609_at) / Fold change /veh KRTAP5-7 /// NADSYN1 (11734609_at) / RFU RASL12 (11751679_a_at) / Fold change /veh RASL12 (11751679_a_at) / RFU CDKN2B (11736163_a_at) / Fold change /veh CDKN2B (11736163_a_at) / RFU PRF1 (11729649_at) / Fold change /veh PRF1 (11729649_at) / RFU, ZNF638 /// ZNF638-IT1 / Fold change vs veh, ZNF638 /// ZNF638-IT1 / RFU, PANK3 / Fold change vs veh, PANK3 / RFU, SH3YL1 / Fold change vs veh, SH3YL1 / RFU, ZEB2 / Fold change vs veh, ZEB2 / RFU, NRIP1 / Fold change vs veh, NRIP1 / RFU, PTTG1IP / Fold change vs veh, PTTG1IP / RFU, CAPN2 / Fold change vs veh, CAPN2 / RFU, MED14 / Fold change vs veh, MED14 / RFU, SNORA58 / Fold change vs veh, SNORA58 / RFU, C1orf63 / Fold change vs veh, C1orf63 / RFU, LRRFIP1 / Fold change vs veh, LRRFIP1 / RFU, NDUFAF7 / Fold change vs veh, NDUFAF7 / RFU, SLC12A2 / Fold change vs veh, SLC12A2 / RFU, IBTK / Fold change vs veh, IBTK / RFU, ESF1 / Fold change vs veh, ESF1 / Fold change vs veh, TMEM50B / RFU, TAOK1 / Fold change vs veh, TAOK1 / RFU, ACBD3 / Fold change vs veh, ACBD3 / RFU, TMA16 / Fold change vs veh, TMA16 / RFU, RWDD3 / Fold change vs veh, RWDD3 / RFU, BCAT1 / Fold change vs veh, BCAT1 / RFU, EDEM3 / Fold change vs veh, EDEM3 / RFU, TMEM33 / Fold change vs veh, TMEM33 / RFU, WDR75 / Fold change vs veh, WDR75 / RFU, AHCTF1 / Fold change vs veh, AHCTF1 / RFU, TFRC / Fold change vs veh, TFRC / RFU, ZDHHC17 / Fold change vs veh, ZDHHC17 / RFU, NOM1 / Fold change vs veh, NOM1 / RFU, ARL8B / Fold change vs veh, ARL8B / RFU, ZBTB11 / Fold change vs veh, ZBTB11 / RFU, TAMM41 / Fold change vs veh, TAMM41 / RFU, KIAA1704 /// LOC100996395 / Fold change vs veh, KIAA1704 /// LOC100996395 / RFU, ING1 / Fold change vs veh, ING1 / RFU, TRMT61B / Fold change vs veh, TRMT61B / RFU, FUBP3 / Fold change vs veh, FUBP3 / RFU, TP53 / Fold change vs veh, TP53 / RFU, TNKS2 / Fold change vs veh, TNKS2 / RFU, ZFP14 / Fold change vs veh, ZFP14 / RFU, ACTR2 / Fold change vs veh, ACTR2 / RFU, PPP3R1 / Fold change vs veh, PPP3R1 / RFU, PIK3R1 / Fold change vs veh, PIK3R1 / RFU, HNRNPA1 / Fold change vs veh, HNRNPA1 / RFU, RNF170 / Fold change vs veh, RNF170 / RFU, ZNF28 / Fold change vs veh, ZNF28 / RFU, RNGTT / Fold change vs veh, RNGTT / RFU, OGT / Fold change vs veh, OGT / RFU, BRD1 / Fold change vs veh, BRD1 / RFU, MARS / Fold change vs veh, MARS / RFU, ZNF655 / Fold change vs veh, ZNF655 / RFU, FAHD1 / Fold change vs veh, FAHD1 / RFU, BDP1 / Fold change vs veh, BDP1 / RFU, LRRCC1 / Fold change vs veh, LRRCC1 / RFU, ARID1A / Fold change vs veh, ARID1A / RFU, ZNF146 / Fold change vs veh, ZNF146 / RFU, ZNF330 / Fold change vs veh, ZNF330 / RFU, GPN3 / Fold change vs veh, GPN3 / RFU, C9orf123 / Fold change vs veh, C9orf123 / RFU, N4BP2L2 / Fold change vs veh, N4BP2L2 / RFU, ARFIP1 / Fold change vs veh, ARFIP1 / RFU, FAM179B / Fold change vs veh, FAM179B / RFU, BCL10 / Fold change vs veh, BCL10 / RFU, UHRF1BP1L / Fold change vs veh, UHRF1BP1L / RFU, BET1 / Fold change vs veh, BET1 / RFU, CNOT2 / Fold change vs veh, CNOT2 / RFU, ZNF268 / Fold change vs veh, ZNF268 / Fold change vs veh, ZNF507 / RFU, DGCR2 / Fold change vs veh, DGCR2 / RFU, WDSUB1 / Fold change vs veh, WDSUB1 / Fold change vs veh, HSP90B1 /// MIR3652 / RFU, ADSS / Fold change vs veh, ADSS / RFU, GK / Fold change vs veh, GK / RFU, ZNF148 / Fold change vs veh, ZNF148 / RFU, TAF9 / Fold change vs veh, TAF9 / RFU, SLC1A5 / Fold change vs veh, SLC1A5 / RFU, SLMO2 / Fold change vs veh, SLMO2 / RFU, ABCC4 / Fold change vs veh, ABCC4 / RFU, LOC101060439 /// RAP1B / Fold change vs veh, LOC101060439 /// RAP1B / RFU, RFX7 / Fold change vs veh, RFX7 / RFU, GTPBP10 / Fold change vs veh, GTPBP10 / RFU, CNEP1R1 / Fold change vs veh, CNEP1R1 / RFU, BIVM-ERCC5 /// ERCC5 / Fold change vs veh, BIVM-ERCC5 /// ERCC5 / RFU, ILF3 / Fold change vs veh, ILF3 / RFU 11762660_at / Fold change /veh 11762660_at / RFU VCAN (11757783_s_at) / Fold change /veh VCAN (11757783_s_at) / RFU DDX43 (11728927_at) / Fold change /veh DDX43 (11728927_at) / RFU KRT8 (11758188_x_at) / Fold change /veh KRT8 (11758188_x_at) / RFU NKD1 (11759106_at) / Fold change /veh NKD1 (11759106_at) / RFU SRD5A1 (11742802_a_at) / Fold change /veh SRD5A1 (11742802_a_at) / RFU TPSAB1 /// TPSB2 (11721975_s_at) / Fold change /veh TPSAB1 /// TPSB2 (11721975_s_at) / RFU GSTM3 (11746129_a_at) / Fold change /veh GSTM3 (11746129_a_at) / RFU IL23R (11737362_x_at) / Fold change /veh IL23R (11737362_x_at) / RFU TMEM51 (11727254_a_at) / Fold change /veh TMEM51 (11727254_a_at) / RFU PIWIL2 (11732686_x_at) / Fold change /veh PIWIL2 (11732686_x_at) / RFU ORM1 (11744905_x_at) / Fold change /veh ORM1 (11744905_x_at) / RFU CCDC152 (11743942_at) / Fold change /veh CCDC152 (11743942_at) / RFU ECM1 (11717891_a_at) / Fold change /veh ECM1 (11717891_a_at) / RFU IL23R (11748794_a_at) / Fold change /veh IL23R (11748794_a_at) / RFU TNFAIP8L3 (11732012_x_at) / Fold change /veh TNFAIP8L3 (11732012_x_at) / RFU MBOAT4 (11741988_at) / Fold change /veh MBOAT4 (11741988_at) / RFU 11764193_at / Fold change /veh 11764193_at / RFU TMEM53 (11763286_at) / Fold change /veh TMEM53 (11763286_at) / RFU MAGEB2 (11727129_at) / Fold change /veh MAGEB2 (11727129_at) / RFU TMEM200A (11744735_a_at) / Fold change /veh TMEM200A (11744735_a_at) / RFU CCDC152 (11751479_a_at) / Fold change /veh CCDC152 (11751479_a_at) / RFU FAM211A (11726209_a_at) / Fold change /veh FAM211A (11726209_a_at) / RFU RGS16 (11746705_a_at) / Fold change /veh RGS16 (11746705_a_at) / RFU VCAN (11755009_s_at) / Fold change /veh VCAN (11755009_s_at) / RFU RHOB (11743442_s_at) / Fold change /veh RHOB (11743442_s_at) / RFU RGS16 (11720943_a_at) / Fold change /veh RGS16 (11720943_a_at) / RFU RGS16 (11720944_at) / Fold change /veh RGS16 (11720944_at) / RFU, VPS4B / Fold change vs veh, VPS4B / RFU, CREB1 / Fold change vs veh, CREB1 / RFU, DNAJC13 / Fold change vs veh, DNAJC13 / RFU, GNAQ / Fold change vs veh, GNAQ / RFU, CDK5R1 / Fold change vs veh, CDK5R1 / RFU, ZRANB3 / Fold change vs veh, ZRANB3 / RFU, CUL4A / Fold change vs veh, CUL4A / RFU, CCNY / Fold change vs veh, CCNY / RFU, UFL1 / Fold change vs veh, UFL1 / RFU, COG3 / Fold change vs veh, COG3 / RFU, DIAPH2 / Fold change vs veh, DIAPH2 / RFU, SKA2 / Fold change vs veh, SKA2 / RFU, AFF3 / Fold change vs veh, AFF3 / RFU, LMF1 / Fold change vs veh, LMF1 / RFU, IPO11 / Fold change vs veh, IPO11 / RFU, DFFB / Fold change vs veh, DFFB / RFU, FOXP1 / Fold change vs veh, FOXP1 / RFU, CARD8 / Fold change vs veh, CARD8 / RFU, STRN3 / Fold change vs veh, STRN3 / RFU, ADK / Fold change vs veh, ADK / RFU, RASSF2 / Fold change vs veh, RASSF2 / RFU, WIPF1 / Fold change vs veh, WIPF1 / RFU, LARP1B / Fold change vs veh, LARP1B / RFU, RASA1 / Fold change vs veh, RASA1 / RFU, RB1 / Fold change vs veh, RB1 / RFU, PPFIA1 / Fold change vs veh, PPFIA1 / RFU, MAT2A / Fold change vs veh, MAT2A / RFU, CCT5 / Fold change vs veh, CCT5 / RFU, WDR92 / Fold change vs veh, WDR92 / RFU, CUX1 / Fold change vs veh, CUX1 / RFU, TTC7A / Fold change vs veh, TTC7A / RFU, TMEM135 / Fold change vs veh, TMEM135 / RFU, DEPTOR / Fold change vs veh, DEPTOR / RFU, CPM / Fold change vs veh, CPM / RFU, DNAJB6 / Fold change vs veh, DNAJB6 / RFU, CACNA2D3 / Fold change vs veh, CACNA2D3 / RFU, DTX4 / Fold change vs veh, DTX4 / RFU, TFCP2 / Fold change vs veh, TFCP2 / RFU, GMCL1 /// GMCL1P1 / Fold change vs veh, GMCL1 /// GMCL1P1 / RFU, AEBP2 / Fold change vs veh, AEBP2 / RFU, SNHG1 /// SNORD22 /// SNORD25 /// SNORD26 /// SNORD27 /// SNORD28 /// SNORD29 /// SNORD31 / Fold change vs veh, SNHG1 /// SNORD22 /// SNORD25 /// SNORD26 /// SNORD27 /// SNORD28 /// SNORD29 /// SNORD31 / Fold change (Aza/veh), C12orf56 (ProbeSet 11735607_a_at) / Fold change (ACY-1035/veh), C12orf56 (ProbeSet 11735607_a_at) / Fold change (Aza/veh), FGFR1OP (ProbeSet 11751329_s_at) / Fold change (ACY-1035/veh), FGFR1OP (ProbeSet 11751329_s_at) / Fold change (Aza/veh), VPS36 (ProbeSet 11739960_a_at) / Fold change (ACY-1035/veh), VPS36 (ProbeSet 11739960_a_at) / RFU SYPL1 (11715823_x_at) / Fold change /veh SYPL1 (11715823_x_at) / RFU IGFBP7 (11715501_s_at) / Fold change /veh IGFBP7 (11715501_s_at) / RFU REEP3 (11722064_at) / Fold change /veh REEP3 (11722064_at) / RFU IGLL1 (11728026_x_at) / Fold change /veh IGLL1 (11728026_x_at): dose or concentration left out as unconfirmed
Settings: ProbeSet 11725885_a_at; LIST B

Nc1ncn([C@@H]2O[C@H](CO)[C@@H](O)[C@H]2O)c(=O)n1 [azacitidine]
Fold change vs veh, CNEP1R1: 0.86
